Source: patent US4618669A, “S-(carbamoyl-phenylselenyl) derivatives of glutathione and of aminomercaptocarboxylic acids” (A. Nattermann & Cie GmbH, priority 1984, dated 1986)

Assay: Glutathione-peroxidase-like activity, reaction rates by the method of A. Wendel
Type: biochemical
Details: relative to S-(2-phenylcarbamoyl-phenylselenyl) glutathione, taken as 100%; tert-butylhydroperoxide; in vitro
Procedure: The measuring of the glutathione peroxidase-like activity is carried out by the method of A. Wendel (A. Wendel, Methods in Enzymology, vol. 77, 325-333 (1981)). In this experiment, the reaction of the co-substrate nicotine […]-dinucleotide-phosphate is measured. The reducing agent in this case is not glutathione, but the […] containing aminoacid which has been used for the synthesis of the respective compounds. […] In in vitro-experiments, the catalysis of the peroxidase destruction has been examined. It was found, that the compounds of the present invention can replace the glutathioneperoxidase. [drawing 5] The reaction rates were measured by the method of A. Wendel (A. Wendel, Methods in Enzymology, vol. 77, pages 325-333 (1981)).
In the case of `N[C@@H](CS[Se]c1ccccc1C(=O)NCc1ccccc1)C(=O)O` [S-(2-Benzylcarbamoyl-phenylselenyl)-L-cysteine], the “catalytic activity (%)” value is reported as 56%.
For `NC(CCC(=O)NC(CS[Se]c1cc(F)ccc1C(=O)Nc1ccccc1)C(=O)NCC(=O)O)C(=O)O` [S-(2-Phenylcarbamoyl-5-fluoro-phenylselenyl)-L-glutathione], the “catalytic activity (%)” value was 92%.
For `N[C@@H](CS[Se]c1ccccc1C(=O)Nc1ccccc1)C(=O)O` [S-(2-Phenylcarbamoyl-phenylselenyl)-L-cysteine], the “catalytic activity (%)” value was 210%.
For `N[C@@H](CCC(=O)N[C@@H](CS[Se]c1ccccc1C(=O)Nc1ccccc1)C(=O)NCC(=O)O)C(=O)O` [S-(2-Phenylcarbamoyl-phenylselenyl)-L-glutathione], the “catalytic activity (%)” value was 100%.
For `CC(=O)N[C@@H](CS[Se]c1ccccc1C(=O)Nc1ccccc1)C(=O)O` [S-(2-Phenylcarbamoyl-phenylselenyl)-N-acetyl-L-cysteine], the “catalytic activity (%)” value was 40%.
For `NC(CCC(=O)NC(CS[Se]c1cc(Cl)ccc1C(=O)Nc1ccccc1)C(=O)NCC(=O)O)C(=O)O` [S-(2-phenylcarbamoyl-5-chlor-phenylselenyl)-L-glutathione], the “catalytic activity (%)” value was 99%.
In the case of `COc1ccc(C(=O)Nc2ccccc2)c([Se]SCC(NC(=O)CCC(N)C(=O)O)C(=O)NCC(=O)O)c1` [S-(2-phenylcarbamoyl-5-methoxy-phenylselenyl)-L-glutathione], the “catalytic activity (%)” value is reported as 63%.
In the case of `COc1cccc(C(=O)Nc2ccccc2)c1[Se]SC[C@H](N)C(=O)O` [S-(2-phenylcarbamoyl-6-methoxy-phenylselenyl)-L-cysteine], the “catalytic activity (%)” value is reported as 440%.
In the case of `COc1cccc(C(=O)Nc2ccccc2)c1[Se]SCC(NC(=O)CCC(N)C(=O)O)C(=O)NCC(=O)O` [S-(2-phenylcarbamoyl-6-methoxy-phenylselenyl)-L-glutathione], the “catalytic activity (%)” value is reported as 225%.
In the case of `CC(C)(S[Se]c1ccccc1C(=O)Nc1ccccc1)[C@@H](N)C(=O)O` [S-(2-phenylcarbamoyl-phenylselenyl)-D-penicillamine], the “catalytic activity (%)” value is reported as 25%.
In the case of `COc1ccccc1NC(=O)c1ccccc1[Se]SCC(NC(=O)CCC(N)C(=O)O)C(=O)NCC(=O)O` [S--[2-(2-methoxyphenylcarbamoyl)-phenylselenyl]-L--glutathione], the “catalytic activity (%)” value is reported as 37%.
For `NC(CCC(=O)NC(CS[Se]c1ccccc1C(=O)Nc1ccccc1Cl)C(=O)NCC(=O)O)C(=O)O` [S-[2-(2-chlorphenylcarbamoyl)-phenylselenyl]-L-glutathione], the “catalytic activity (%)” value was 39%.
With `N[C@@H](CCC(=O)N[C@@H](CS[Se]c1ccccc1C(=O)Nc1ccc(Cl)c(Cl)c1)C(=O)NCC(=O)O)C(=O)O` [S-[2-(3,4-Dichlorophenylcarbamoyl)-phenylselenyl]-L-glutathione] the “catalytic activity (%)” value was 21%.
For `NC(CCC(=O)NC(CS[Se]c1ccccc1C(=O)Nc1cccc(F)c1)C(=O)NCC(=O)O)C(=O)O` [S-[2-(3-fluorophenylcarbamoyl)-phenylselenyl]-L-glutathione], the “catalytic activity (%)” value was 113%.
With `NC(CCC(=O)NC(CS[Se]c1ccccc1C(=O)Nc1ccc(Cl)cc1)C(=O)NCC(=O)O)C(=O)O` [S-[2-(4-Chlorophenylcarbamoyl)-phenylselenyl]-L-glutathione] the “catalytic activity (%)” value was 116%.
For `COc1ccc(NC(=O)c2ccccc2[Se]SCC(NC(=O)CCC(N)C(=O)O)C(=O)NCC(=O)O)cc1` [S-[2-(4-Methoxyphenylcarbamoyl)-phenylselenyl]-L-glutathione], the “catalytic activity (%)” value was 124%.
For `CC(=O)N[C@@H](CS[Se]c1ccccc1C(=O)Nc1ccc(F)cc1)C(=O)O` [S-[2-(4-fluorophenylcarbamoyl)-phenylselenyl]-N-acetyl-L-cysteine], the “catalytic activity (%)” value was 61%.
In the case of `NC(CCC(=O)NC(CS[Se]c1ccccc1C(=O)Nc1ccc([N+](=O)[O-])cc1)C(=O)NCC(=O)O)C(=O)O` [S-[2-(4-nitrophenylcarbamoyl)-phenylselenyl]-L-glutathione], the “catalytic activity (%)” value is reported as 121%.
With `NC(CCC(=O)NC(CS[Se]c1ccccc1C(=O)Nc1ccc(C(F)(F)F)cc1)C(=O)NCC(=O)O)C(=O)O` [S-[2-(4-trifluormethylphenylcarbamoyl)-phenylselenyl]-L-glutathione] the “catalytic activity (%)” value was 49%.

Assay: as above
Type: biochemical
Details: 1 millimolar concentration of glutathione with tert-butylhydroperoxide
In the case of `N[C@@H](CCC(=O)N[C@@H](CS[Se]c1ccccc1C(=O)Nc1ccccc1)C(=O)NCC(=O)O)C(=O)O` [S-(2-Phenylcarbamoyl-phenylselenyl)-L-glutathione], the reaction rate is reported as 1,17×10^6 units per mol.
